Data published in patent US9427458B2, “Methods for inhibiting cancer cell proliferation” (Consejo Nacional de Investigaciones Cientificas y Tecnicas, …, priority 2010, dated 2016).
Entries after “also recorded” stand apart in the source; their conditions may differ.

Assays:
[1] = tested on: Stat3; assay: Stat3 phosphorylation and nuclear translocation in C4HD cells; format: cell-based, mouse
Method: (§1) Lysates were prepared from cells subjected to the different treatments and proteins were subjected to SDS-PAGE as previously described (21). Membranes were immunoblotted with the antibodies detailed in each experiment. When phospho(p)-protein antibodies were used, filters were reprobed with total protein antibodies. Signal intensities of pErbB-2, pStat3, pSrc, pPR, pJak1, and pJak2 bands were analyzed by densitometry and normalized to total protein bands. Similarly, signal intensities of PR, cyclin D1, Stat3, and ErbB-2 bands were normalized to actin or β tubulin bands. […] The NEPER Nuclear and Cytoplasmic Extraction Reagents technique (Pierce Biotechnology) was performed as per manufacturer's instructions. Nuclear association between ErbB-2 and Stat3 was studied by performing coimmunoprecipitation experiments using 200 μg of nuclear protein lysates as described (22).
siRNAs targeting ErbB-2, Stat3, and Pr were synthesized by Dharmacon, Inc (Lafayatte, Colo.) (ErbB-2siRNA: 5′GAUGGUGCUUACUCAUUGA3′ (SEQ ID NO:8), designed to specifically knockdown mouse ErbB2 but not human ErbB-2; Stat3siRNA: 5′[…]3′ (SEQ ID NO:9) targets mouse Stat3; and 5′[…]3′ (SEQ ID NO:10) targets human Stat3; PRsiRNA: 5′[…]3′(SEQ ID NO:11)). […] Transfection of siRNAs duplexes was performed by using the DharmaFECT transfection reagent following the manufacturer's direction for 3 days. For reconstitution experiments cotransfection of 25 nM ErbB-2 siRNA with 2 μg expression vectors was performed using DharmaFECT Duo transfection reagent (Dharmacon).
(§2) Cells grown on glass coverslips were fixed and permeabilized in ice-cold methanol and were then blocked with PBS 1% BSA. ErbB-2 was localized using either a rabbit polyclonal (C-18) or a mouse monoclonal (F-11) ErbB-2 antibody (Santa Cruz Biotechnology) and Stat3 was detected using a mouse monoclonal antibody (124H6, Cell Signaling), followed by incubation with a goat anti-rabbit IgG-Alexa 488 (Molecular Probes, Eugene, Oreg.) secondary antibody for ErbB-2 (C-18) and with a rhodamine conjugated goat anti-mouse secondary antibody (Jackson ImmunoResearch Laboratories, West Grove, Pa.) for both ErbB2 (F-11) and Stat3. Negative controls were carried out using PBS instead of primary antibodies, or 5× competitive peptide (Santa Cruz Biotechnology) when ErbB-2 (C-18) was used. When cells were transfected with hErbB-2ΔNLS, green fluorescent protein from this expression vector was visualized by direct fluorescence imaging. […] FIGS. 2A, 3B and C, illustrate a few cells representative of the ones examined. Cells were analyzed using a Nikon Eclipse E800 confocal laser microscopy system (22).

[2] = tested on: ErbB-2; assay: ErbB-2 cellular localization (subcellular fractionation/immunoblot, confocal microscopy) in C4HD cells; format: cell-based, mouse
Method: (§3) Lysates were prepared from cells subjected to the different treatments and proteins were subjected to SDS-PAGE as previously described (21). Membranes were immunoblotted with the antibodies detailed in each experiment. When phospho(p)-protein antibodies were used, filters were reprobed with total protein antibodies. Signal intensities of pErbB-2, pStat3, pSrc, pPR, pJak1, and pJak2 bands were analyzed by densitometry and normalized to total protein bands. Similarly, signal intensities of PR, cyclin D1, Stat3, and ErbB-2 bands were normalized to actin or β tubulin bands. […]
(§4) Cells grown on glass coverslips were fixed and permeabilized in ice-cold methanol and were then blocked with PBS 1% BSA. ErbB-2 was localized using either a rabbit polyclonal (C-18) or a mouse monoclonal (F-11) ErbB-2 antibody (Santa Cruz Biotechnology) and Stat3 was detected using a mouse monoclonal antibody (124H6, Cell Signaling), followed by incubation with a goat anti-rabbit IgG-Alexa 488 (Molecular Probes, Eugene, Oreg.) secondary antibody for ErbB-2 (C-18) and with a rhodamine conjugated goat anti-mouse secondary antibody (Jackson ImmunoResearch Laboratories, West Grove, Pa.) for both ErbB2 (F-11) and Stat3. […] When cells were transfected with hErbB-2ΔNLS, green fluorescent protein from this expression vector was visualized by direct fluorescence imaging. […]

[3] = tested on: human cyclin D1 promoter; assay: ChIP of Stat3 and ErbB-2 on the human cyclin D1 promoter in T47D cells; format: cell-based; settings: MPA 30 min, primers flanking the −984 GAS site
Method: (§5) ChIP was performed as described elsewhere (Hawthorne et al., 2005) with minor modifications. Briefly, chromatin was sonicated to an average of about 500 bp. Sonicated chromatin was then immunoprecipitated using 4 μg of either an anti-ErbB-2 or an anti-Stat3 antibody and rabbit IgG as control. The IP was collected using Protein A beads (Upstate Biotechnology, Lake Placid, N.Y.), which were washed repeatedly to remove nonspecific DNA binding. The chromatin was eluted from the beads and crosslinks were removed overnight at 65° C. DNA was then purified and quantified using real-time PCR. For sequential ChIP experiments, Stat3 immunoprecipitates were eluted with DTT and then subjected to a second round of immunoprecipitation with ErbB-2 antibody or with IgG.
(§6) ChIP DNA was amplified by real-time PCR (qPCR), performed with an ABI Prism 7500 sequence detector using SYBR green PCR master mix (Applied Biosystems, Foster City, Calif.). The primers used were as follows: 5′-TTCCGGTGGTCTGGTTCCT-3′ (SEQ ID NO:12) and 5′-[…]-3′(SEQ ID NO:13) designed to amplify a region of the mouse cyclin D1 promoter containing two GAS sites (−971 and −874), 5′-[…]-3′(SEQ ID NO:14) and 5′-[…]-3′ (SEQ ID NO:15) designed to amplify a region of the human cyclin D1 promoter containing one GAS site (−984). These primers were designed with “Primer Express” real-time PCR primer design software (Applied Biosystems). […]

[4] = tested on: cyclin D1 promoter; assay: Human cyclin D1 promoter luciferase reporter in T47D cells; format: cell-based; settings: MPA 24 h, versus cells untreated with MPA
From the text: The luciferase reporter plasmid downstream the cyclin D1 human promoter region (−1745 cyclin D1-luc), and constructs truncated at positions −963, −261, −141, were kindly provided by Dr. R. Pestell (Northwestern University Medical School, Chicago, Ill.). These constructs were generated by truncation of the 1745-bp length promoter in order to sequentially exclude 5′ regions of the promoter. The −963 cyclin D1-luc construct excludes one GAS site (−984), the −261 cyclin D1-luc excludes three GAS sites (−984, −568 and −475) and the −141 cyclin D1-luc excludes four GAS sites (−984, −568, −475 and −239). The empty vector pA3 Luc was also provided by Dr. R. Pestell. The luciferase reporter plasmid containing four copies of the m67 high-affinity binding site (p4×m67-tk-luc) and the pTATA-tk-Luc reporter lacking the m67 insertion were a gift from Dr J. Darnell (The Rockefeller University, New York, N.Y.). The Renilla luciferase expression plasmid RLCMV was obtained from Promega (Madison, Wis.). […] Triplicate samples were analyzed for each datum point. Differences between experimental groups were analyzed by ANOVA followed by Tukey test between groups.

[5] = tested on: ErbB-2; assay: ErbB-2 cellular localization (subcellular fractionation/immunoblot, confocal microscopy) in T47D cells; format: cell-based, human
Method: as §3, §4

[6] = tested on: cyclin D1; assay: Cyclin D1 protein levels by Western blot in C4HD cells; format: cell-based, mouse; settings: MPA treatment of C4HD cells
Method: (§7) Primary cultures of epithelial cells from C4HD tumors were performed as described (2). T47D cells were obtained from American Type Culture Collection and T47D-Y cells were a generous gift from Dr. K. Horwitz (Denver, Colo.). To evaluate the effects of the pharmacological inhibitors on MPA-induced proteins phosphorylation or cyclin D1 expression, cells were preincubated for 90 min with RU486, PP2, Tyrphostin AG825 or Jak inhibitor I before addition of MPA. Cell proliferation was evaluated by [3H]-thymidine incorporation assay and cell cycle distribution was analyzed by flow cytometry, as described (22).
as §1, with “Nuclear association between ErbB-2 and Stat3 was studied by performing coimmunoprecipitation experiments using 200 μg of nuclear protein lysates as described (22).” left out

[7] = tested on: ErbB-2; assay: ErbB-2 tyrosine phosphorylation by Western blot in T47D cells; format: cell-based, human
Method: as §7, §1

[8] = tested on: cyclin D1 promoter; assay: Human cyclin D1 promoter luciferase reporter in C4HD cells; format: cell-based, mouse; settings: MPA 24 h, versus cells untreated with MPA
From the text: The luciferase reporter plasmid downstream the cyclin D1 human promoter region (−1745 cyclin D1-luc), and constructs truncated at positions −963, −261, −141, were kindly provided by Dr. R. Pestell (Northwestern University Medical School, Chicago, Ill.). These constructs were generated by truncation of the 1745-bp length promoter in order to sequentially exclude 5′ regions of the promoter. The −963 cyclin D1-luc construct excludes one GAS site (−984), the −261 cyclin D1-luc excludes three GAS sites (−984, −568 and −475) and the −141 cyclin D1-luc excludes four GAS sites (−984, −568, −475 and −239). The empty vector pA3 Luc was also provided by Dr. R. Pestell. The luciferase reporter plasmid containing four copies of the m67 high-affinity binding site (p4×m67-tk-luc) and the pTATA-tk-Luc reporter lacking the m67 insertion were a gift from Dr J. Darnell (The Rockefeller University, New York, N.Y.). The Renilla luciferase expression plasmid RLCMV was obtained from Promega (Madison, Wis.). Dominant negative Stat3 expression vector, Stat3Y705-F, which carries a tyrosine to phenylalanine substitution at codon 705 that reduces phosphorylation on tyrosine of the wild-type Stat3 protein, therefore inhibiting both dimerization and DNA binding of Stat3 (6,7,16) was kindly provided by Dr J. Darnell (New York, USA). The empty pcDNA3.1 vector was also a gift of Dr J. Darnell. Human wild-type ErbB-2 expression vector (hErbB-2WT) as well as the empty pMe18SM vector were a gift from by Dr. T. Yamamoto (University of Tokyo, Japan) (1). The GFP-tagged human ErbB-2 mutant which lacks the putative nuclear localization signal sequence (aa 676-KRRQQKIRKYTMRR-689) (SEQ ID NO:3), resulting in the sequence of KLM at the deletion junction (hErbB-2ΔNLS), was generously provided by Dr. M. C. Hung (The University of Texas M.D. Anderson Cancer Center, Houston, Tex.) (Giri et al., 2005). The empty pEGFP-N1 vector was obtained from BD Biosciences Clontech (Palo Alto, Calif.). The plasmid encoding the human wild-type hPR-B was kindly provided by Dr. K. Horwitz. In experiments assessing MPA capacity to induce the transcriptional activation of Stat3, C4HD and T47D cells were transiently transfected for 48 h with 1 μg of −1745 cyclin D1-luc reporter plasmid or the truncated −963, −261 and −141 constructs, or with 1 μg p4×m67-tk-luc and 10 ng of RL-CMV used to correct variations in transfection efficiency. As control, cells were transfected with 1 μg of either the pA3 Luc or pTATA-tk-Luc reporters. Cells were cotransfected with 2 μg of Stat3Y705-F when indicated. Total amount of transfected DNA was standardized by adding the empty pcDNA3.1 vector. […] Triplicate samples were analyzed for each datum point. Differences between experimental groups were analyzed by ANOVA followed by Tukey test between groups.

[9] = tested on: Stat3; assay: Stat3 phosphorylation and nuclear translocation in T47D cells; format: cell-based, human
Method: as §1, §2

[10] = tested on: ErbB-2; assay: ErbB-2 tyrosine phosphorylation by Western blot in C4HD cells; format: cell-based, mouse
Method: as §7
as §1, with “Nuclear association between ErbB-2 and Stat3 was studied by performing coimmunoprecipitation experiments using 200 μg of nuclear protein lysates as described (22).” left out

[11] = tested on: mouse cyclin D1 promoter; assay: ChIP of Stat3 and ErbB-2 on the mouse cyclin D1 promoter in C4HD cells; format: cell-based; settings: MPA 30 min
Method: as §5, §6

[12] = C4HD cells pretreated with inhibitor before MPA
[13] = T47D cells pretreated with inhibitor before MPA

5′GAUGGUGCUUACUCAUUGA3′ (other strand missing, further chemistry not given here) [ErbB-2 siRNAs, siRNA designed to specifically knockdown mouse ErbB2 but not human ErbB-2]
MPA-induced Stat3 phosphorylation ([1]; C4HD cells transfected with siRNAs to knock down mouse ErbB-2): inhibited

CC(=O)O[C@]1(C(C)=O)CC[C@H]2[C@@H]3C[C@H](C)C4=CC(=O)CC[C@]4(C)[C@H]3CC[C@@]21C [MPA, Medroxyprogesterone acetate]
ErbB-2 nuclear translocation ([2]; MPA treatment of C4HD cells, 15 to 60 min): resulted in ErbB-2 nuclear localization; also recorded: induced a strong ErbB-2 protein nuclear translocation | occupancy by Stat3 and ErbB-2 of the human cyclin D1 promoter [3]: striking increase | Stat3 nuclear translocation ([1]; MPA treatment of C4HD cells, 30 and 60 min): induced nuclear translocation of Stat3; also recorded: present at the nuclear compartment and strongly phosphorylated at Tyr 705 | nuclear colocalization of ErbB-2 and Stat3 ([1]; MPA treatment of C4HD cells, 30 min, confocal): strong nuclear colocalization | increase in cyclin D1 promoter activity [4]: 3 fold | ErbB-2 nuclear translocation ([5]; MPA treatment of T47D cells, 15 to 60 min): resulted in ErbB-2 nuclear localization; also recorded: induced a strong ErbB-2 protein nuclear translocation | cyclin D1 protein levels [6]: significant increase | ErbB-2 phosphorylation at Tyr 1222 or Tyr 877 ([7]; MPA, PR-null T47D cells (T47D-Y)): no effect | ErbB-2 phosphorylation at Tyr 1222 and Tyr 877 ([7]; MPA, T47D-Y cells transfected with human PR-B (T47D-Y-PR-B)): markedly enhanced | increase in cyclin D1 promoter activity [8]: 3 fold | Stat3 nuclear translocation ([9]; MPA treatment of T47D cells, 30 and 60 min): induced nuclear translocation of Stat3; also recorded: present at the nuclear compartment and strongly phosphorylated at Tyr 705 | nuclear colocalization of ErbB-2 and Stat3 ([9]; MPA treatment of T47D cells, 30 min, confocal): strong nuclear colocalization | ErbB-2 phosphorylation at Tyr 1272 and Tyr 927 ([10]; MPA treatment of C4HD cells): induces a rapid phosphorylation | binding of nuclear Stat3 and ErbB-2 to the mouse cyclin D1 promoter [11]: significant and specific

COc1cc(/C=C(\C#N)C(N)=O)cc(CSc2nc3ccccc3s2)c1O [AG825]
MPA-induced ErbB-2 nuclear translocation [2, 12]: abrogated; also recorded: significantly inhibited | MPA-induced Stat3 nuclear migration [1, 12]: absolutely prevented | MPA-induced ErbB-2 nuclear translocation [5, 13]: abrogated; also recorded: significantly inhibited | MPA-induced ErbB-2 phosphorylation ([7]; T47D cells preincubated with inhibitor before MPA): prevented | MPA-induced Stat3 nuclear migration [9, 13]: absolutely prevented | MPA-induced ErbB-2 phosphorylation ([10]; C4HD cells preincubated with inhibitor or transfected with siRNA before MPA): prevented
